Data reported in patent US10414811B2, “Protease-resistant lipidated GLP-1 analogs” (MEDIMMUNE LIMITED, priority 2015, dated 2019).
Read-outs that look alike come from different tables or passages of the source. Numbered stars: 1 amine (or outer) side, 2 acyl side, 3 side chain; on linkers, the order of the positions; unused ones are H or OH. Square brackets hold non-standard residues; d marks the D form. Side chains are listed from the residue outwards. Peptide text beside a SMILES is read from it. * marks the point of attachment. C18 diacid = O=C(O)CCCCCCCCCCCCCCCCC(=O)*; γGlu = O=C(O)[C@H](CCC(=O)[*:2])N[*:1]; αMeF = C[C@](N)(Cc1ccccc1)C(=O)O; αMeK = C[C@](N)(CCCCN)C(=O)O; Lauroyl = CCCCCCCCCCCC(=O)*; αMeS = C[C@](N)(CO)C(=O)O; AEEA = NCCOCCOCC(=O)O; Aib = CC(C)(N)C(=O)O

Tests used:
Assay type in all cases: cell-based
[1] = biological target: T1, human GLP-1 receptor (GLP-1R) (Homo sapiens, UniProt P43220); assay: cAMP assay, human GLP-1R cells
T1 construct: expressed in transfected cells
T1 sequence (P43220 24-463): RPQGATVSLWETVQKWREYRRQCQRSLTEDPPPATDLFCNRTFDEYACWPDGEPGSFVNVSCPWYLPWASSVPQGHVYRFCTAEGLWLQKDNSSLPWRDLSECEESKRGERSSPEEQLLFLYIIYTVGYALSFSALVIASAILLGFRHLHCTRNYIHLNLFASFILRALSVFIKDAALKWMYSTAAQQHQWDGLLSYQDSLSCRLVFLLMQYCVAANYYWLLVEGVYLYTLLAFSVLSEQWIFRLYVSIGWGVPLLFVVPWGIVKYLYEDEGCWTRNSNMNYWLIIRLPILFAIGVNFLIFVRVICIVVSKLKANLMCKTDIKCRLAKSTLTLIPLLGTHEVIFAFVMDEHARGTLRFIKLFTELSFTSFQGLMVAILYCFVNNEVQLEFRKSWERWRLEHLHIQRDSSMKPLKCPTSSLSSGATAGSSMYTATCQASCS
In short: (§1)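 Peptide-stimulated cAMP measured by two-step HTRF after a 30 min room-temperature incubation with receptor-expressing cells (hGLP-1R, hGIPR at 1×10^5 cells/ml; hGCGR at 2×10^5 cells/ml). Duplicate dilutions; EC50 from 4-parameter logistic fit of % Delta F.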

[2] = biological target: T2, human glucagon receptor (GCGR) (Homo sapiens, UniProt P47871); assay: cAMP assay, human GCGR cells
T2 construct: expressed in transfected cells
T2 sequence (P47871 26-477): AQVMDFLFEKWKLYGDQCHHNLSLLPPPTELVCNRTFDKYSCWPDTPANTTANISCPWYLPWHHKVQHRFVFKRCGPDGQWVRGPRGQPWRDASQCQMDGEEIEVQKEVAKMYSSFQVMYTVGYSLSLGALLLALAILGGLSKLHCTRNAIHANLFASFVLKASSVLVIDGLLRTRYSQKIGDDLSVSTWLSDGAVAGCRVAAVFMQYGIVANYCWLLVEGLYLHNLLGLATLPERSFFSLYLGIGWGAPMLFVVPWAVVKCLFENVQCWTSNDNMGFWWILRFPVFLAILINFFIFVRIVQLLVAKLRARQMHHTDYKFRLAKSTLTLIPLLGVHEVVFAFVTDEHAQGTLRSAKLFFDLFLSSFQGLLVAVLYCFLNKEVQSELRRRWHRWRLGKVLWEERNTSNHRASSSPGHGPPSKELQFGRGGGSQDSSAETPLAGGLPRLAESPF
In short: as §1

[3] = biological target: T3, human glucose-dependent insulinotropic peptide receptor (GIPR) (Homo sapiens, UniProt P48546); assay: cAMP assay, human GIPR cells
T3 construct: expressed in transfected cells
T3 sequence (P48546 22-466): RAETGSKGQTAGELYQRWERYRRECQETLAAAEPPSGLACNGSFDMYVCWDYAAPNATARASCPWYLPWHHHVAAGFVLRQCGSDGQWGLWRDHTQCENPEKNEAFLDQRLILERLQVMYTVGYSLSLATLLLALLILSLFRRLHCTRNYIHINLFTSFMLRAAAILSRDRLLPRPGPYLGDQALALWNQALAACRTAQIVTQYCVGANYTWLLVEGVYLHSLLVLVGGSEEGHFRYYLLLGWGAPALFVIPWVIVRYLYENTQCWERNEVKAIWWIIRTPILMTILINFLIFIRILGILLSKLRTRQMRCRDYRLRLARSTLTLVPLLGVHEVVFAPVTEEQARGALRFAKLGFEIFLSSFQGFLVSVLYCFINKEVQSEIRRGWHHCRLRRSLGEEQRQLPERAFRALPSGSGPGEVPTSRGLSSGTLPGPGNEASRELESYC
In short: as §1

GLP-1R (INS1e assay) = biological target: T4, GLP-1R (INS1e assay) (Rattus norvegicus, UniProt P32301); assay: INS1e assay, cAMP activity at GLP-1R
T4 construct: endogenous in cells; host or cells: INS-1E cells
T4 sequence (P32301 22-463): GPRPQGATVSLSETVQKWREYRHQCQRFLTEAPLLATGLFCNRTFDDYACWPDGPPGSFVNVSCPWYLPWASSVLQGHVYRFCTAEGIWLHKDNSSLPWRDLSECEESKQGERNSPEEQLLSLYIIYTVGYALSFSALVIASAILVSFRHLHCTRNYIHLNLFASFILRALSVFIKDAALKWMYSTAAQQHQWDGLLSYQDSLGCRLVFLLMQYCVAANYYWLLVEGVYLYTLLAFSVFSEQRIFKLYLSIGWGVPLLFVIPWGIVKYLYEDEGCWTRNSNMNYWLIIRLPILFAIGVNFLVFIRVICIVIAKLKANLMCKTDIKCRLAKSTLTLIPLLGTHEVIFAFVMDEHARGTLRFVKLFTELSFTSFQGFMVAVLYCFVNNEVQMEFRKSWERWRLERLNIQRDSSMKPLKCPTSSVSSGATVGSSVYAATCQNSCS
In short: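 It pairs cAMP-d2 acceptor with anti-cAMP cryptate donor, both prepared 1/20 in conjugate/lysis buffer, applied as a two-step protocol.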

[4] = cAMP assay, first determination (n1), read-out: Primary assay EC50 GLP-1R n1
[5] = cAMP assay, first determination (n1), read-out: Primary assay EC50 Gluc-R (n1)
[6] = cAMP assay, second determination (n2), read-out: Primary assay EC50 Gluc-R (n2)
[7] = cAMP assay, first determination (n1), read-out: Primary assay EC50 GIP-R (n1)
[8] = cAMP assay, second determination (n2), read-out: Primary assay EC50 GIP-R (n2)
[9] = mono-lipidated peptides, mean of n1 and n2, read-out: INS1e assay EC50 Mean pM GLP-1R
[10] = mono-lipidated peptides, replicate n1, read-out: INS1e assay EC50 GLP-1R n1
[11] = mono-lipidated peptides, replicate n2, read-out: INS1e assay EC50 GLP-1R n2
[12] = cAMP assay, second determination (n2), read-out: Primary assay EC50 GLP-1R n2
[13] = mean of n1 and n2, read-out: Mean pM GLP-1R

Structure (SMILES)	EC50 [1, 4]	EC50 [2, 5]	EC50 [2, 6]	EC50 [3, 7]	EC50 [3, 8]	EC50 (GLP-1R (INS1e assay); [9])	EC50 (GLP-1R (INS1e assay); [10])	EC50 (GLP-1R (INS1e assay); [11])	EC50 [1, 12]	EC50 [1, 13]	other results
CCCCCCCCCCCC(=O)N[C@@H](CCC(=O)NCCOCCOCC(=O)NCCOCCOCC(=O)NCCCC[C@H](NC(=O)[C@H](C)NC(=O)[C@@H](NC(=O)[C@H](Cc1ccccc1)NC(=O)[C@H](CCC(=O)O)NC(=O)[C@](C)(CCCCN)NC(=O)[C@H](C)NC(=O)[C@H](CCCCNC(=O)COCCOCCNC(=O)COCCOCCNC(=O)CC[C@H](NC(=O)CCCCCCCCCCC)C(=O)O)NC(=O)[C@H](CCC(=O)O)NC(=O)CNC(=O)[C@H](CCC(=O)O)NC(=O)[C@H](CCCCNC(=O)COCCOCCNC(=O)COCCOCCNC(=O)CC[C@H](NC(=O)CCCCCCCCCCC)C(=O)O)NC(=O)[C@H](Cc1ccc(O)cc1)NC(=O)[C@H](CO)NC(=O)[C@](C)(CO)NC(=O)[C@@H](NC(=O)[C@H](CC(=O)O)NC(=O)[C@H](CO)NC(=O)[C@@H](NC(=O)[C@](C)(Cc1ccccc1)NC(=O)[C@H](CO)NC(=O)CNC(=O)[C@H](CCC(=O)O)NC(=O)C(C)(C)NC(=O)[C@@H](N)Cc1c[nH]cn1)[C@@H](C)O)C(C)C)[C@@H](C)CC)C(=O)N[C@H](C(=O)N[C@H](C(=O)N[C@@H](CCC(=O)O)C(=O)NCC(=O)NCC(N)=O)C(C)C)C(C)C)C(=O)O [compound 469] (H-H[Aib]EGS[αMeF]TSDV[αMeS]SYK([AEEA-AEEA-γGlu-Lauroyl])EGEK([AEEA-AEEA-γGlu-Lauroyl])A[αMeK]EFIAK([AEEA-AEEA-γGlu-Lauroyl])VVEGG-NH2; N-terminus assumed)											EC50 ([1]; tris-lipidated peptides, mean of n1 and n2, read-out: Primary assay EC50 Mean pM GLP-1R): 45.4 pM; EC50 ([1]; tris-lipidated peptides, replicate n1, read-out: Primary assay EC50 GLP-1R n1): 41.8 pM; EC50 ([1]; tris-lipidated peptides, replicate n2, read-out: Primary assay EC50 GLP-1R n2): 49 pM; EC50 ([2]; tris-lipidated peptides, second replicate, read-out: Primary assay EC50 Gluc-R (n2)): 19.8 nM; EC50 ([3]; tris-lipidated peptides, second replicate, read-out: Primary assay EC50 GIP-R (n2)): 19.8 nM; EC50 (GLP-1R (INS1e assay); tris-lipidated peptides, mean of n1 and n2, read-out: INS1e assay EC50 Mean pM GLP-1R): 4900 pM; EC50 (GLP-1R (INS1e assay); tris-lipidated peptides, replicate n1, read-out: INS1e assay EC50 GLP-1R n1): 6900 pM; EC50 (GLP-1R (INS1e assay); tris-lipidated peptides, replicate n2, read-out: INS1e assay EC50 GLP-1R n2): 2890 pM
CC[C@H](C)[C@H](NC(=O)[C@](C)(Cc1ccccc1)NC(=O)[C@H](CCC(=O)O)NC(=O)[C@H](CCCCNC(=O)CCCCCNC(=O)CCCCCCCCCCCOc1ccc(C(=O)O)cc1)NC(=O)[C@H](C)NC(=O)[C@H](C)NC(=O)[C@H](CCC(=O)O)NC(=O)CNC(=O)[C@H](CCC(=O)O)NC(=O)[C@H](CC(C)C)NC(=O)[C@](C)(Cc1ccccc1)NC(=O)[C@H](CO)NC(=O)[C@](C)(CO)NC(=O)[C@@H](NC(=O)[C@H](CC(=O)O)NC(=O)[C@H](CO)NC(=O)[C@@H](NC(=O)[C@](C)(Cc1ccccc1)NC(=O)[C@H](CO)NC(=O)CNC(=O)[C@H](CCC(=O)O)NC(=O)C(C)(C)NC(=O)[C@@H](N)Cc1c[nH]cn1)[C@@H](C)O)C(C)C)C(=O)N[C@@H](C)C(=O)N[C@@](C)(Cc1ccccc1)C(=O)N[C@H](C(=O)N[C@H](C(=O)N[C@@](C)(CCCCN)C(=O)NCC(=O)NCC(N)=O)C(C)C)C(C)C [compound 140]	5.9 pM					30 pM	43.2 pM	16.7 pM	3.9 pM	4.9 pM	EC50 ([2]; Primary assay EC50 Gluc-R (n1), cAMP assay, first determination (n1)): ≥ 27 nM; EC50 ([2]; read-out: Primary assay EC50 Gluc-R (n2), cAMP assay, second determination (n2)): ≥ 27 nM; EC50 ([3]; Primary assay EC50 GIP-R (n1), cAMP assay, first determination (n1)): ≥ 27 nM; EC50 ([3]; read-out: Primary assay EC50 GIP-R (n2), cAMP assay, second determination (n2)): ≥ 27 nM

The next lines start with results.

EC50 [1, 4]	EC50 [2, 5]	EC50 [2, 6]	EC50 [3, 7]	EC50 [3, 8]	EC50 (GLP-1R (INS1e assay); [9])	EC50 (GLP-1R (INS1e assay); [10])	EC50 (GLP-1R (INS1e assay); [11])	EC50 [1, 12]	EC50 [1, 13]	Structure (SMILES)	other results
18 pM	≥ 25 nM	≥ 25 nM	≥ 25 nM	≥ 25 nM	806 pM	501 pM	1110 pM			CC[C@H](C)[C@H](NC(=O)[C@](C)(Cc1ccccc1)NC(=O)[C@H](CCC(=O)O)NC(=O)[C@](C)(CCCCN)NC(=O)[C@H](C)NC(=O)[C@H](CCCCNC(=O)COCCOCCNC(=O)COCCOCCNC(=O)CC[C@H](NC(=O)CCCCCCCCCCCCCCCCC(=O)O)C(=O)O)NC(=O)[C@H](CCC(=O)O)NC(=O)CNC(=O)[C@H](CCC(=O)O)NC(=O)[C@H](CC(C)C)NC(=O)[C@](C)(Cc1ccccc1)NC(=O)[C@H](CO)NC(=O)[C@](C)(CO)NC(=O)[C@@H](NC(=O)[C@H](CC(=O)O)NC(=O)[C@H](CO)NC(=O)[C@@H](NC(=O)[C@](C)(Cc1ccccc1)NC(=O)[C@H](CO)NC(=O)CNC(=O)[C@H](CCC(=O)O)NC(=O)C(C)(C)NC(=O)[C@@H](N)Cc1c[nH]cn1)[C@@H](C)O)C(C)C)C(=O)N[C@@H](C)C(=O)N[C@@](C)(Cc1ccccc1)C(=O)N[C@H](C(=O)N[C@H](C(=O)N[C@@](C)(CCCCN)C(=O)NCC(=O)NCC(N)=O)C(C)C)C(C)C [compound 111] (H-H[Aib]EGS[αMeF]TSDV[αMeS]S[αMeF]LEGEK([AEEA-AEEA-γGlu-C18 diacid])A[αMeK]E[αMeF]IA[αMeF]VV[αMeK]GG-NH2)	
203 pM	≥ 25.1 nM	≥ 25.1 nM	≥ 25.1 nM	≥ 25.1 nM	42200 pM	45600 pM	38800 pM	97.9 pM	150 pM	CC[C@H](C)[C@H](NC(=O)[C@H](Cc1ccccc1)NC(=O)[C@H](CCC(=O)O)NC(=O)[C@H](CCC(=O)O)NC(=O)[C@H](C)NC(=O)[C@H](C)NC(=O)[C@H](CCC(=O)O)NC(=O)CNC(=O)[C@H](CCC(=O)O)NC(=O)[C@H](CC(C)C)NC(=O)[C@](C)(Cc1ccccc1)NC(=O)[C@H](CO)NC(=O)[C@](C)(CO)NC(=O)[C@@H](NC(=O)[C@H](CC(=O)O)NC(=O)[C@H](CO)NC(=O)[C@@H](NC(=O)[C@](C)(Cc1ccccc1)NC(=O)[C@H](CO)NC(=O)CNC(=O)[C@H](CCC(=O)O)NC(=O)C(C)(C)NC(=O)[C@@H](N)Cc1c[nH]cn1)[C@@H](C)O)C(C)C)C(=O)N[C@@H](CCCCNC(=O)COCCOCCNC(=O)COCCOCCNC(=O)CC[C@H](NC(=O)CCCCCCCCCCCCCCCCC(=O)O)C(=O)O)C(=O)N[C@@H](Cc1c[nH]c2ccccc12)C(=O)N[C@H](C(=O)N[C@H](C(=O)N[C@@H](CCC(=O)O)C(=O)NCC(=O)NCC(N)=O)C(C)C)C(C)C [compound 66] (H-H[Aib]EGS[αMeF]TSDV[αMeS]S[αMeF]LEGEAAEEFIK([AEEA-AEEA-γGlu-C18 diacid])WVVEGG-NH2; N-terminus assumed)	
5.4 pM	≥ 27 nM	≥ 27 nM	≥ 27 nM	≥ 27 nM	79 pM	98.6 pM	59.3 pM	4.5 pM	5 pM	CCCCCCCCCCCC(=O)NCCOCCOCC(=O)NCCOCCOCC(=O)NCCCC[C@H](NC(=O)[C@H](C)NC(=O)[C@H](C)NC(=O)[C@H](CCC(=O)O)NC(=O)CNC(=O)[C@H](CCC(=O)O)NC(=O)[C@H](CC(C)C)NC(=O)[C@](C)(Cc1ccccc1)NC(=O)[C@H](CO)NC(=O)[C@](C)(CO)NC(=O)[C@@H](NC(=O)[C@H](CC(=O)O)NC(=O)[C@H](CO)NC(=O)[C@@H](NC(=O)[C@](C)(Cc1ccccc1)NC(=O)[C@H](CO)NC(=O)CNC(=O)[C@H](CCC(=O)O)NC(=O)C(C)(C)NC(=O)[C@@H](N)Cc1c[nH]cn1)[C@@H](C)O)C(C)C)C(=O)N[C@@H](CCC(=O)O)C(=O)N[C@@](C)(Cc1ccccc1)C(=O)N[C@H](C(=O)N[C@@H](C)C(=O)N[C@@](C)(Cc1ccccc1)C(=O)N[C@H](C(=O)N[C@H](C(=O)N[C@@](C)(CCCCN)C(=O)NCC(=O)NCC(N)=O)C(C)C)C(C)C)[C@@H](C)CC [compound 135]	
